Values of other authors in US20140323580A1, “P[…] DOSAGE FORM” (Pharmacorp CC, priority 2009, published 2014).
Where a name gives a salt, the structure may show the parent alone. Read-outs that look alike come from different tables or passages of the source.

Compound | solubility in alcohol | solubility in chloroform | solubility in ether | solubility in water | solubility in alcohol (HCl) | solubility in chloroform (HCl) | solubility in ether (HCl) | solubility in water (HCl)
CC(C)(N)Cc1ccccc1 [Phentermine, α,α-dimethyl phenethylamine (phenyl-tertiary-butylamine)] | soluble | soluble | soluble | slightly soluble | – | – | – | –
CC(C)(N)Cc1ccccc1 [phentermine HCl] | – | – | – | – | very soluble | very soluble | insoluble | very soluble
